biological target: T1, Ketohexokinase (Human, UniProt P50053); assay: Ketohexokinase Assay (KHK Assay)
T1 sequence (P50053 whole entry): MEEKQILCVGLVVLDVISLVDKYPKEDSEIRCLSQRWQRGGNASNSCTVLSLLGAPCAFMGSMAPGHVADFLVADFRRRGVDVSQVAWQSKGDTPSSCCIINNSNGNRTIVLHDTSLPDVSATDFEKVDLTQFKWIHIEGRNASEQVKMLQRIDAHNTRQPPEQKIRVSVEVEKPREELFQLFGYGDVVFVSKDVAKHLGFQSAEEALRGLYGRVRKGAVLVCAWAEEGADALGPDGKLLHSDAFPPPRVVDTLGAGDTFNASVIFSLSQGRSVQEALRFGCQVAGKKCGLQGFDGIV
Procedure: a) Kinase Reaction1. preparation of Dilution Buffer containing 50 mM hydroxyethylpiperazine […] (Hepes), 140 mM KCl, 3.5 mM MgCl2, and 0.01% bovine serum albumin (BSA), pH 7.4.2. A working solution of ketohexokinase at 2.5 times concentration was prepared with Dilution Buffer, with 50 nM ketohexokinase and 12.5 mM fructose.3. A working solution of adenosine triphosphate (ATP) at 2.5 times concentration was prepared with Dilution Buffer, with a concentration of 250 μM.4. Each compound was diluted starting at a concentration of 500 μM, 3-fold diluted for 9 concentration points. The final concentration of the compound in the reaction system started from 10 μM and the final concentration of dimethyl sulfoxide (DMSO) was 2%.5. A 96-well plate was prepared as a reaction plate, and was incubated at room temperature for 5 min after adding 6 μL ketohexokinase working solution at 2.5 times concentration to each well and further adding 3 μL compound working solution to each well.6. The first well of each row was a positive control for a compound, i.e. the same volume of the buffer was added to replace the compound […]. The last well was a negative control for the compound, i.e. the same volume of Dilution Buffer was added instead of the compound.7. 6 μL ATP working solution was added to each well in a 96-well reaction plate to initiate the kinase reaction. The kinase reaction was incubated in a constant temperature heater at 28° C. for 1 h.b) ADP-Glo assay1. A384 plate was prepared as a detection plate, and firstly 5 μL ADP-Glo reagent was added.2. 5 μL kinase reaction mixture from the reaction plate was added to each well and incubated in a constant temperature heater at 28° C. for 30 min.3. 10 μL kinase detection reagent was added to each well and incubated in a constant temperature heater at 28° C. for 30 min.4. The detection plate was placed in an EnVision multilabel reader to read the chemiluminescent signal.

IC50	SMILES
17 nM	C[C@H]1CCN1c1nc(Nc2ccc(C(=O)O)c(C(F)(F)F)c2)c2ccsc2n1 [US12534477, Compound WX013]
21 nM	C[C@H]1CCN1c1nc(N2CC3(C[C@@H]3C(=O)O)C2)c2c(n1)C(F)(F)CC2 [US12534477, Compound WX042]
36 nM	C[C@H]1CCN1c1nc(N2CC3(CC3C(=O)O)C2)c2c(n1)C(F)(F)CC2 (some centres undefined) [US12534477, Compound WX035]
28 nM	C[C@H]1CCN1c1nc(N2CC3(C[C@H]3C(=O)O)C2)c2c(n1)C(F)(F)CC2 [US12534477, Compound WX043]
